Laboratory results reported in PubChem BioAssay (NCI).
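These data come from cells grown in 96-well plates and exposed to compound for 48 hours at five concentrations. The concentration for full growth arrest is given as TGI.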

Experiments:
Assay in all cases: NCI anticancer screen, dose series, 48 h
786-0 renal = system: 786-0 renal
A498 renal = system: A498 renal
A549 NSCLC = system: A549 NSCLC
ACHN renal = system: ACHN renal
COLO 205 colon = system: COLO 205 colon
DLD-1 colon = system: DLD-1 colon
DMS 114 small cell lung = system: DMS 114 small cell lung
DMS 273 small cell lung = system: DMS 273 small cell lung
EKVX NSCLC = system: EKVX NSCLC
HCC-2998 colon = system: HCC-2998 colon
HCT-116 colon = system: HCT-116 colon
HCT-15 colon = system: HCT-15 colon
HL-60(TB) leukemia = system: HL-60(TB) leukemia
HOP-18 NSCLC = system: HOP-18 NSCLC
HOP-62 NSCLC = system: HOP-62 NSCLC
HOP-92 NSCLC = system: HOP-92 NSCLC
HT29 colon = system: HT29 colon
IGROV1 ovarian = system: IGROV1 ovarian
K-562 leukemia = system: K-562 leukemia
KM20L2 colon = system: KM20L2 colon
LXFL 529 NSCLC = system: LXFL 529 NSCLC
M14 melanoma = system: M14 melanoma
M19-MEL melanoma = system: M19-MEL melanoma
MALME-3M melanoma = system: MALME-3M melanoma
NCI-H226 lung = system: NCI-H226 lung
NCI-H23 lung = system: NCI-H23 lung
NCI-H522 lung = system: NCI-H522 lung
OVCAR-4 ovarian = system: OVCAR-4 ovarian
OVCAR-8 ovarian = system: OVCAR-8 ovarian
RXF 393 renal = system: RXF 393 renal
SF-268 CNS = system: SF-268 CNS
SF-295 CNS = system: SF-295 CNS
SF-539 CNS = system: SF-539 CNS
SK-MEL-28 melanoma = system: SK-MEL-28 melanoma
SK-MEL-5 melanoma = system: SK-MEL-5 melanoma
SK-OV-3 ovarian = system: SK-OV-3 ovarian
SN12C renal = system: SN12C renal
SNB-19 CNS = system: SNB-19 CNS
SNB-75 CNS = system: SNB-75 CNS
SNB-78 CNS = system: SNB-78 CNS
SR leukemia = system: SR leukemia
SW-620 colon = system: SW-620 colon
U251 CNS = system: U251 CNS
UACC-257 melanoma = system: UACC-257 melanoma
UACC-62 melanoma = system: UACC-62 melanoma
UO-31 renal = system: UO-31 renal
XF 498 CNS = system: XF 498 CNS
CAKI-1 renal = system: CAKI-1 renal
CCRF-CEM leukemia = system: CCRF-CEM leukemia
KM12 colon = system: KM12 colon
LOX IMVI melanoma = system: LOX IMVI melanoma
MOLT-4 leukemia = system: MOLT-4 leukemia
NCI-H460 lung = system: NCI-H460 lung
OVCAR-3 ovarian = system: OVCAR-3 ovarian
RPMI-8226 leukemia = system: RPMI-8226 leukemia
TK-10 renal = system: TK-10 renal

Q: How did the TGI (786-0 renal) turn out when `Nc1nc2c3nc(Nc4ccccc4)sc3nc(=S)n2c2sc(Nc3ccccc3)nc12` was run?
A: > 100 µM

Q: What about the TGI (A498 renal) of the same compound?
A: > 100 µM

Q: What about the TGI (A549 NSCLC) of the same compound?
A: > 100 µM

Q: What about the TGI (ACHN renal) of the same compound?
A: > 100 µM

Q: What about the TGI (COLO 205 colon) of the same compound?
A: > 100 µM

Q: What about the TGI (DLD-1 colon) of the same compound?
A: > 100 µM

Q: What about the TGI (DMS 114 small cell lung) of the same compound?
A: > 100 µM

Q: What about the TGI (DMS 273 small cell lung) of the same compound?
A: > 100 µM

Q: What about the TGI (EKVX NSCLC) of the same compound?
A: > 100 µM

Q: What about the TGI (HCC-2998 colon) of the same compound?
A: > 100 µM

Q: What about the TGI (HCT-116 colon) of the same compound?
A: > 100 µM

Q: And the TGI (HCT-15 colon)?
A: > 100 µM

Q: And the TGI (HL-60(TB) leukemia)?
A: > 100 µM

Q: And the TGI (HOP-18 NSCLC)?
A: > 100 µM

Q: And the TGI (HOP-62 NSCLC)?
A: > 100 µM

Q: And the TGI (HOP-92 NSCLC)?
A: 52.3 µM

Q: And the TGI (HT29 colon)?
A: > 100 µM

Q: What about the TGI (IGROV1 ovarian) of the same compound?
A: > 100 µM

Q: And the TGI (K-562 leukemia)?
A: > 100 µM

Q: And the TGI (KM20L2 colon)?
A: > 100 µM

Q: What about the TGI (LXFL 529 NSCLC) of the same compound?
A: 29.4 µM

Q: And the TGI (M14 melanoma)?
A: > 100 µM

Q: What about the TGI (M19-MEL melanoma) of the same compound?
A: > 100 µM

Q: What about the TGI (MALME-3M melanoma) of the same compound?
A: > 100 µM

Q: And the TGI (NCI-H226 lung)?
A: > 100 µM

Q: What about the TGI (NCI-H23 lung) of the same compound?
A: > 100 µM

Q: What about the TGI (NCI-H522 lung) of the same compound?
A: > 100 µM

Q: And the TGI (OVCAR-4 ovarian)?
A: > 100 µM

Q: What about the TGI (OVCAR-8 ovarian) of the same compound?
A: > 100 µM

Q: And the TGI (RXF 393 renal)?
A: > 100 µM

Q: And the TGI (SF-268 CNS)?
A: 56.5 µM

Q: What about the TGI (SF-295 CNS) of the same compound?
A: > 100 µM

Q: And the TGI (SF-539 CNS)?
A: > 100 µM

Q: And the TGI (SK-MEL-28 melanoma)?
A: > 100 µM

Q: And the TGI (SK-MEL-5 melanoma)?
A: > 100 µM

Q: And the TGI (SK-OV-3 ovarian)?
A: > 100 µM

Q: And the TGI (SN12C renal)?
A: > 100 µM

Q: What about the TGI (SNB-19 CNS) of the same compound?
A: > 100 µM

Q: What about the TGI (SNB-75 CNS) of the same compound?
A: > 100 µM

Q: What about the TGI (SNB-78 CNS) of the same compound?
A: > 100 µM

Q: And the TGI (SR leukemia)?
A: > 100 µM

Q: And the TGI (SW-620 colon)?
A: > 100 µM

Q: What about the TGI (U251 CNS) of the same compound?
A: > 100 µM

Q: And the TGI (UACC-257 melanoma)?
A: > 100 µM

Q: What about the TGI (UACC-62 melanoma) of the same compound?
A: > 100 µM

Q: What about the TGI (UO-31 renal) of the same compound?
A: > 100 µM

Q: And the TGI (XF 498 CNS)?
A: 4.25 µM

Q: `CC(=O)OCC1OC(n2cc(F)c(=O)[nH]c2=O)C(NC(=O)N(CCCl)N=O)C(OC(C)=O)C1OC(C)=O` (stereo not drawn) was tested. Which TGI (786-0 renal) did it give?
A: > 100 µM

Q: And the TGI (A498 renal)?
A: > 100 µM

Q: And the TGI (A549 NSCLC)?
A: > 100 µM

Q: And the TGI (ACHN renal)?
A: > 100 µM

Q: What about the TGI (CAKI-1 renal) of the same compound?
A: > 100 µM

Q: What about the TGI (CCRF-CEM leukemia) of the same compound?
A: > 100 µM

Q: What about the TGI (COLO 205 colon) of the same compound?
A: > 100 µM

Q: What about the TGI (DLD-1 colon) of the same compound?
A: > 100 µM

Q: And the TGI (DMS 114 small cell lung)?
A: > 100 µM

Q: What about the TGI (DMS 273 small cell lung) of the same compound?
A: > 100 µM

Q: What about the TGI (HCT-116 colon) of the same compound?
A: > 100 µM

Q: What about the TGI (HL-60(TB) leukemia) of the same compound?
A: > 100 µM

Q: And the TGI (HOP-18 NSCLC)?
A: > 100 µM

Q: And the TGI (HOP-62 NSCLC)?
A: > 100 µM

Q: And the TGI (HOP-92 NSCLC)?
A: > 100 µM

Q: And the TGI (HT29 colon)?
A: > 100 µM

Q: And the TGI (IGROV1 ovarian)?
A: > 100 µM

Q: What about the TGI (K-562 leukemia) of the same compound?
A: > 100 µM

Q: What about the TGI (KM12 colon) of the same compound?
A: > 100 µM

Q: And the TGI (KM20L2 colon)?
A: > 100 µM

Q: And the TGI (LOX IMVI melanoma)?
A: > 100 µM

Q: What about the TGI (LXFL 529 NSCLC) of the same compound?
A: > 100 µM

Q: And the TGI (M14 melanoma)?
A: > 100 µM

Q: What about the TGI (M19-MEL melanoma) of the same compound?
A: > 100 µM

Q: And the TGI (MALME-3M melanoma)?
A: > 100 µM

Q: What about the TGI (MOLT-4 leukemia) of the same compound?
A: > 100 µM

Q: And the TGI (NCI-H23 lung)?
A: > 100 µM

Q: And the TGI (NCI-H460 lung)?
A: > 100 µM

Q: What about the TGI (NCI-H522 lung) of the same compound?
A: > 100 µM

Q: And the TGI (OVCAR-3 ovarian)?
A: > 100 µM

Q: And the TGI (OVCAR-4 ovarian)?
A: > 100 µM

Q: And the TGI (OVCAR-8 ovarian)?
A: > 100 µM

Q: And the TGI (RPMI-8226 leukemia)?
A: > 100 µM

Q: What about the TGI (SF-268 CNS) of the same compound?
A: > 100 µM

Q: What about the TGI (SF-295 CNS) of the same compound?
A: > 100 µM

Q: And the TGI (SF-539 CNS)?
A: > 100 µM

Q: What about the TGI (SK-MEL-28 melanoma) of the same compound?
A: > 100 µM

Q: And the TGI (SK-MEL-5 melanoma)?
A: > 100 µM

Q: What about the TGI (SK-OV-3 ovarian) of the same compound?
A: > 100 µM

Q: And the TGI (SN12C renal)?
A: > 100 µM

Q: And the TGI (SNB-19 CNS)?
A: > 100 µM

Q: What about the TGI (SNB-75 CNS) of the same compound?
A: 78.3 µM

Q: And the TGI (SNB-78 CNS)?
A: > 100 µM

Q: And the TGI (SR leukemia)?
A: > 100 µM

Q: What about the TGI (SW-620 colon) of the same compound?
A: > 100 µM

Q: And the TGI (TK-10 renal)?
A: > 100 µM

Q: What about the TGI (U251 CNS) of the same compound?
A: > 100 µM

Q: What about the TGI (UACC-257 melanoma) of the same compound?
A: > 100 µM

Q: What about the TGI (UACC-62 melanoma) of the same compound?
A: > 100 µM

Q: And the TGI (UO-31 renal)?
A: > 100 µM

Q: And the TGI (XF 498 CNS)?
A: > 100 µM
